These results are taken from paper PMC6238727 (2018).

In data set [1] the test system is Thrombin. The data set is described as follows: Recombinant human Thrombin at 5U/ml.
Another data set has as its system Neutrophil elastase. The data set is described as follows: Neutrophil elastase at 30 nM. The following applies: human, up to 12 min.
Data set [2] relates to plasmin. The data set is described as follows: plasmin.
For data set [3], the system named is MMP-2. The data set is described as follows: Recombinant human catalytic domain MMP-2 at 30nM.
Data set [4] relates to MMP-13. The data set is described as follows: Recombinant human catalytic domain MMP-13 at 30nM.
The nature of data set [5]: human tissue homogenate (healthy and fibrotic lung tissue).
Data set [6] in a line: healthy (homogenised) human lung tissue.
In data set [7] the test system is thrombin. The experiment in a line: thrombin (Sigma Aldrich) (5 U ml^–1) in MMP buffer (10 mM CaCl2, Tris-HCl, NaCl, pH 7.5). The following applies: human, up to 60 min.
The test system of another data set is MMP. The experiment in a line: incubation with MMP (which MMP is not given). To be noted: up to 10 min.
A further data set deals with Factor Xa. The data set is described as follows: Factor Xa (Sigma Aldrich) (500 nM) in MMP buffer. The following applies: up to 60 min.
The next data set has as its system MMP-9 + Thrombin. The experiment in a line: MMP-9 + Thrombin together in MMP buffer. The following applies: human, up to 60 min.
In data set [8] the test system is MMP-2. The experiment in a line: recombinant MMP enzymes (active domains), 30 nM, in MMP buffer. The following applies: up to 60 min.
For data set [9], the system named is Plasmin. The experiment in a line: Plasmin (Sigma Aldrich) (30 nM) in MMP buffer. The following applies: up to 60 min.
A short description of data set [10]: lavage fluid collected from the LPS murine model.
Data set [11] relates to MMP-13. The experiment in a line: recombinant MMP enzymes (active domains), 30 nM, in MMP buffer. The following applies: up to 60 min.
Data set [12] can be described thus: platelet rich plasma (PRP) collected from the LPS murine model.
The subject of another data set is MMP-9. The experiment in a line: recombinant MMP enzymes (active domains), 30 nM, in MMP buffer. To be noted: human, up to 60 min.
Data set [13] can be described thus: excised human carotid (atherosclerotic) plaque, sliced in half lengthwise, in a well with probe solution. The following applies: up to 60 min.

Entries after “also recorded” stand apart in the source; their conditions may differ.

As for -G-P-K-G-Ile-K-G-, the not cleaved entry in the data set with Thrombin [1] was “Thrombin did not cleave any of the sequences”. Besides, in the data set with Neutrophil elastase, the cleaved bond result is “I-K”.

Consider -G-P-K-G-L-K-G-, for which the not cleaved result in “neutrophil lysate” is “not cleaved with Neutrophil lysate”; in the data set on Thrombin [1], “not cleaved with Thrombin”; in the data set on Neutrophil elastase it was “stable to Elastase”. In addition, the cleaved bond result is recorded as “K-G” in the data set on plasmin [2], “G-L” in the data set with MMP-2 [3], “G-L” in the data set with MMP-13 [4] and “G-L” in [5].

Regarding -P-Cha-G-M-F-G-, the not cleaved entry in the data set on Thrombin [1] is reported as “Thrombin did not cleave any of the sequences”; in the data set with Neutrophil elastase it was “remained intact”.

As for -P-Cha-G-M-H-G-, the not cleaved entry was “Thrombin did not cleave any of the sequences” in the data set with Thrombin [1] and “remained intact” with Neutrophil elastase.

-P-Cha-G-M-K-G-: the not cleaved result in the data set on Thrombin [1] is given as “Thrombin did not cleave any of the sequences”; with Neutrophil elastase it was “remained intact”.

In the case of -P-Cha-G-M-K-ßA-G-, the not cleaved result is “Thrombin did not cleave any of the sequences” with Thrombin [1] and “remained intact” in the data set on Neutrophil elastase.

Regarding -P-Cha-G-M-W-G-, the not cleaved result in the data set on Thrombin [1] was “Thrombin did not cleave any of the sequences”; in the data set on Neutrophil elastase, “remained intact”.

Turning to -P-Cha-G-M-Y(Me)-G-, the not cleaved entry with Thrombin [1] is on record as “Thrombin did not cleave any of the sequences”; with Neutrophil elastase, “remained intact”.

As for -P-Cha-G-M-Y-G-, the not cleaved entry in the data set with Thrombin [1] is listed as “Thrombin did not cleave any of the sequences”; in the data set with Neutrophil elastase, “remained intact”.

Turning to -P-F-G-Ile-K-ßA-, the not cleaved entry in the data set with Thrombin [1] is “Thrombin did not cleave any of the sequences”. The cleaved bond result with Neutrophil elastase is given as “I-K”.

For the substance -P-F-G-L-K-ßA-, the results for the not cleaved result in the data set on Thrombin [1] and in the data set with Neutrophil elastase were “Thrombin did not cleave any of the sequences” and “remained intact”, respectively.

As to -P-F-G-M-K-ßA-, the not cleaved result in the data set on Thrombin [1] is given as “Thrombin did not cleave any of the sequences”; in the data set with Neutrophil elastase, “remained intact”.

Turning to -P-F-G-Nle-K-ßA-, the not cleaved result in the data set “neutrophil lysate” is “not cleaved with Neutrophil lysate”; in the data set with Thrombin [1] it was “not cleaved with Thrombin”; in the data set on plasmin [2], “totally plasmin resistant”; with Neutrophil elastase it was “stable to Elastase”. Besides, the cleaved bond entry (in the data set with MMP-2 [3]; in the data set on MMP-13 [4]; in [5]) was “G-Nle” throughout.

In the case of “PFGNleKA attached to the hydrophilic tail -[PEG2-(D)K]3-NH2”, in [6], the not cleaved result is “good solubility and stability as confirmed by MALDI TOF MS and HPLC analysis”.

In the case of “–NleWP(D)RGWR(D)L– | –PFGNleKβA– | –K-PEG2–”, in the data set on thrombin [7], the not cleaved result is given as “not activated by their target enzymes”.

For “–NleWPRGWR(D)L– | –PFG(D)NleKβA– | –K-PEG2–”, the not cleaved entry with MMP is recorded as “not activated by their target enzymes”.

Regarding “–NleWPRGWR(D)L– | –PFGNleKβA– | –K-PEG2–”, the not cleaved result in the data set with Factor Xa is “completely plasmin and Factor Xa resistant”; with Plasmin [9] it was “completely plasmin and Factor Xa resistant”; in [10] it was “not cleaved by murine proteolytic (MMP and Thrombin) enzymes”; in data set [12], “not cleaved by murine proteolytic (MMP and Thrombin) enzymes”. Further, the cleaved bond result in the data set with MMP-9 + Thrombin was “Arg-Gly; also recorded: Gly-Nle”; in the data set with MMP-2 [8] it was “Gly-Nle”; with MMP-13 [11], “Gly-Nle”; with thrombin [7], “Arg-Gly”; in the data set with MMP-9, “Gly-Nle”; in data set [13] it was “Arg-Gly; also recorded: Gly-Nle”.
